Values quoted from earlier work as cited in publication PMC4267740, “Unprecedented Therapeutic Potential with a Combination of A2A/NR2B Receptor Antagonists as Observed in the 6-OHDA Lesioned Rat Model of Parkinson's Disease” (PLoS ONE, 2014).

Columns and labels:
[1] = tested on: haloperidol-induced catalepsy; details: threshold dose of Theophylline; cited from earlier work
[2] = tested on: L-Dopa-induced dyskinesia; design: method as in PMID 18759356; details: randomized double-blind placebo-controlled clinical trial; cited from earlier work
[3] = tested on: rats with a unilateral lesion of the medial forebrain bundle; details: cited from earlier work
[4] = tested on: Reserpine-induced akinesia; design: method as in PMID 9918703; details: cited from earlier work
PD patients = details: single clinical study; cited from earlier work
[5] = tested on: unilaterally 6-OHDA-lesioned rats; design: method as in PMID 15081591; details: rotometer; cited from earlier work

SMILES: C/C(=C\C(N)C(=O)O)CP(=O)(O)O (stereo not shown) [CGP37849]
- Effect of co-administration with Theophylline on haloperidol-induced catalepsy [1]: potentiate the effects of a threshold dose of Theophylline

SMILES: C[C@@H]([C@@H](O)c1ccc(O)cc1)N1CCC(O)(c2ccccc2)CC1 [CP-101,606]
- Efficacy in counteracting L-Dopa-induced dyskinesia [2]: demonstrated efficacy

SMILES: O=C(O)C1CN(CCCP(=O)(O)O)CCN1 (stereo not shown) [CPP]
- Effect on stepping deficit [3]: ameliorate the stepping deficit

SMILES: CC(C(O)c1ccc(O)cc1)N1CCC(Cc2ccccc2)CC1 (stereo not shown) [Ifenprodil]
- Effect on Reserpine-induced akinesia [4]: counteract Reserpine-induced akinesia at the highest dose tested

SMILES: Cc1ccc(COC(=O)N2CC[C@H](CNc3ncccn3)[C@H](F)C2)cc1 [MK-0657]
- Result of clinical study as monotherapy (PD patients): negative results

SMILES: CC(C(O)c1ccc(O)cc1)N1CCC(Cc2ccccc2)CC1 (stereo not shown) [Ro 25–6981]
- Induction of contralateral rotations as monotherapy [5]: inducing contralateral rotations

SMILES: C[C@]12N[C@H](Cc3ccccc31)c1ccccc12 [dizocilpine]
- Effect of co-administration with Theophylline on haloperidol-induced catalepsy [1]: potentiate the effects of a threshold dose of Theophylline
